We go through 2 compounds from paper PMC5823406, “Vehicle development, pharmacokinetics and toxicity of the anti-invasive agent 4-fluoro-3’,4’,5’-trimethoxychalcone in rodents” (PLoS ONE, 2018).

Molecules are shown by their SMILES.

A short description of one data set: Whole blood stability. The format is in vitro ADME, rat. The conditions noted are these: fresh whole blood, male Sprague-Dawley rat blood, read-out: Compound remaining (% of 0 min). How it is done:
C16 (1 μM) or vehicle (DMSO) were incubated with fresh rat blood (Sprague Dawley, male) at 37°C at 5 time points in duplicate over a 120-min period. The final DMSO concentration in the incubation was 0.25%. Reactions were terminated following 0, 15, 30, 60 and 120 min by acetonitrile containing internal standard. The sampling plate was centrifuged (3000 rpm, 45 min, 4 °C) and the supernatants from each time point analyzed for parent compound by HPLC-MS/MS. The percentage of parent compound remaining at each time point relative to the 0-min sample was then calculated from HPLC-MS/MS peak area ratios (compound peak area/internal standard peak area).
C. Stability and metabolism
For details on ADME experiments not included underneath , please consult ref. [1].
C.A. Whole blood stability
Column: Kinetex XB-C18 column, 2.6 µm (150 x2.1 mm)
Mobile phase A: H2O + 0.1% v/v Formic Acid
Mobile phase B: MeCN + 0.1% v/v Formic Acid
Autosampler syringe volume: 100 µL
Weak wash: MeOH:H2O 1:9 v/v
Strong wash: MeOH:H2O 95:5 v/v
Table K. Gradient program.
Mass spectrometric conditions
Model: AB Sciex API5500 QTrap
Mode: Multiple ion monitoring (MIM)
Table L. MIM (parent to parent transitions).
The areas and percentages for the parent and metabolites have been calculated using MIM data where parent to parent transitions have been used, and assume that each metabolite has the same point of ionisation and the sensitivity of the metabolite has not been affected by the biotransformation.

For another data set, the system named is mouse. Also on record: method as in PMID 4962802, PMID 6379027. As to conditions: PO; cited from earlier work.

With `COc1ccc([C@@H]2Sc3ccccc3N(CCN(C)C)C(=O)[C@@H]2OC(C)=O)cc1` [diltiazem, reference compound], the share remaining at 15 min, 1 µM in the data set “Whole blood stability” (15 min) stood at 99.9%. Moreover, the fraction remaining at 30 min, 1 µM in the data set “Whole blood stability” (30 min) turned out to be 91.1%. For the same compound, the amount remaining at 60 min, 1 µM in the data set “Whole blood stability” (60 min) came out at 74.3%. The share remaining at 120 min, 1 µM in “Whole blood stability” (120 min) was 45.5%.

For `C[S+](C)[O-]` [DMSO, dimethyl sulfoxide], in the data set with mouse, the LD50 is 21000 to 28000 mg/kg.

By fraction remaining is commonly meant what is left of the initial amount, in per cent. By LD50 is commonly meant the dose expected to kill half of the subjects tested.
